# From US20030194376A1, “Ultrasound contrast agents and methods of making and using them” (Bracco International B.V., priority 1990, published 2003)
# Test: Water solubility of the filling gas (Bunsen coefficient, Gas Encyclopaedia)
# Format: physicochemical
# Settings: gas solubility divided by square root of molecular weight
# Source text: In the Tables, the water solubility factors have also been taken from the aforecited Gas Encyclopaedia from “L'Air Liquide”, Elsevier Publisher (1976).
row,Compound,S gas {square root} Mw
1,FC(F)(F)Br [CBrF3],.0004
2,FC(F)(F)F [CF4],.0004
3,"[Kr] [Kr, Krypton]",.006
